Reference: patent US9249134B2, “Process for preparation of amorphous form of dasatinib” (CADILA HEALTHCARE LIMITED, priority 2013, dated 2016)

Assays:
[1] = Solid-state stability of prior-art amorphous dasatinib under stability conditions; assay type: physicochemical; details: amorphous dasatinib having higher residual solvents (prior art process), subjected to stability conditions
Procedure: Therefore, the prior art process provides amorphous dasatinib containing higher amount of residual solvent which is not suitable for pharmaceutical developments.
As used herein, the term “stable dasatinib” includes either: amorphous dasatinib that after exposure to a relative humidity of 75% at 40° C. or 60% at 25° C., for a period of at least three months contains less than about 0.5% (wt/wt) total impurities and doesn't change to crystalline form.

[2] = in water or organic solvents like methanol, ethanol, propanol, isopropanol, butanol; even in the condition of heating; cited from earlier work

SMILES | solid form stability (amorphous to crystalline conversion) [1] | solubility [2]
Cc1nc(Nc2ncc(C(=O)Nc3c(C)cccc3Cl)s2)cc(N2CCN(CCO)CC2)n1 [amorphous dasatinib] | converts to crystalline form | 
Cc1nc(Nc2ncc(C(=O)Nc3c(C)cccc3Cl)s2)cc(N2CCN(CCO)CC2)n1 [Dasatinib, N-(2-chloro-6-methylphenyl)-2-[[6-[4-(2-hydroxyethyl)-1-piperazinyl]-2-methyl-4-pyrimidinyl]amino]-5-thiazolecarboxamide] |  | practically insoluble
